In the supplement of paper PMC10307832:

What was measured:
Assay in all cases: relative viability (nuclei count vs DMSO), 5 days (fraction); higher = more cells survive
Neratinib + Olaparib = compound: CCOc1cc2ncc(C#N)c(Nc3ccc(OCc4ccccn4)c(Cl)c3)c2cc1NC(=O)/C=C/CN(C)C [Neratinib] + O=C(c1cc(Cc2n[nH]c(=O)c3ccccc23)ccc1F)N1CCN(C(=O)C2CC2)CC1 [Olaparib] (partner 8 µM)
Summary of the method: (§1)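 Lung cancer cell lines, seeded in 1536-well plates, were treated the following day by pin tool with a single drug or with five library-drug doses (not always all listed) in √10 steps on top of a fixed anchor-drug dose. Cells were fixed and nuclei stained in one step after 5 days, and nuclei were counted. Relative viability is the nuclei count for treated wells divided by that for vehicle wells, reported as medians of duplicate plates.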

Neratinib + Bortezomib = compound: CCOc1cc2ncc(C#N)c(Nc3ccc(OCc4ccccn4)c(Cl)c3)c2cc1NC(=O)/C=C/CN(C)C [Neratinib] + CC(C)C[C@H](NC(=O)[C@H](Cc1ccccc1)NC(=O)c1cnccn1)B(O)O [Bortezomib] (partner 0.002 µM)
Summary of the method: as §1

Neratinib + Alpelisib = compound: CCOc1cc2ncc(C#N)c(Nc3ccc(OCc4ccccn4)c(Cl)c3)c2cc1NC(=O)/C=C/CN(C)C [Neratinib] + Cc1nc(NC(=O)N2CCC[C@H]2C(N)=O)sc1-c1ccnc(C(C)(C)C(F)(F)F)c1 [Alpelisib] (partner 2 µM)
Summary of the method: as §1

Neratinib + Pemetrexed = compound: CCOc1cc2ncc(C#N)c(Nc3ccc(OCc4ccccn4)c(Cl)c3)c2cc1NC(=O)/C=C/CN(C)C [Neratinib] + Nc1nc2[nH]cc(CCc3ccc(C(=O)N[C@@H](CCC(=O)O)C(=O)O)cc3)c2c(=O)[nH]1 [Pemetrexed] (partner 0.2 µM)
Summary of the method: as §1

Row | Cell Line | relative viability (Neratinib + Olaparib; first compound 0.01 µM) | relative viability (Neratinib + Olaparib; first compound 0.03162 µM) | relative viability (Neratinib + Olaparib; first compound 0.1 µM) | relative viability (Neratinib + Olaparib; first compound 0.3162 µM) | relative viability (Neratinib + Olaparib; first compound 1 µM) | relative viability (Neratinib + Bortezomib; first compound 0.01 µM) | relative viability (Neratinib + Bortezomib; first compound 0.03162 µM) | relative viability (Neratinib + Bortezomib; first compound 0.1 µM) | relative viability (Neratinib + Bortezomib; first compound 0.3162 µM) | relative viability (Neratinib + Bortezomib; first compound 1 µM) | relative viability (Neratinib + Alpelisib; first compound 0.01 µM) | relative viability (Neratinib + Alpelisib; first compound 0.03162 µM) | relative viability (Neratinib + Alpelisib; first compound 0.1 µM) | relative viability (Neratinib + Alpelisib; first compound 0.3162 µM) | relative viability (Neratinib + Alpelisib; first compound 1 µM) | relative viability (Neratinib + Pemetrexed; first compound 0.01 µM) | relative viability (Neratinib + Pemetrexed; first compound 0.03162 µM) | relative viability (Neratinib + Pemetrexed; first compound 0.1 µM) | relative viability (Neratinib + Pemetrexed; first compound 0.3162 µM) | relative viability (Neratinib + Pemetrexed; first compound 1 µM)
1 | 201T | 0.811 | 0.813 | 0.737 | 0.782 | 0.838 | 1.08 | 1.1 | 1.06 | 1.12 | 1.09 | 1.06 | 0.945 | 0.926 | 1.01 | 0.9 | 0.358 | 0.373 | 0.316 | 0.35 | 0.324
2 | A549 | 0.356 | 0.555 | 0.276 | 0.296 | 0.176 | – | – | – | – | – | 0.79 | 0.601 | 0.458 | – | 0.291 | – | – | – | – | –
3 | A-427 | 0.826 | 0.883 | 0.56 | 0.71 | 0.553 | 1.08 | 0.996 | 1.02 | 0.952 | 0.918 | 1.01 | 1.16 | 1.06 | – | 0.521 | 1.13 | 1.05 | 0.975 | 0.897 | 0.866
4 | ABC-1 | 0.835 | 0.979 | 0.946 | 0.631 | 0.489 | 0.297 | 0.348 | 0.379 | 0.3 | 0.312 | 1.16 | 1.04 | 0.726 | 0.904 | 0.384 | – | – | – | – | –
5 | BEN | 1.15 | 1.21 | 0.863 | 0.932 | 0.816 | 0.844 | 1.02 | 0.72 | 0.615 | 0.635 | 1.06 | 1.28 | 0.983 | 1.04 | 0.598 | 0.971 | 0.929 | 0.751 | 0.778 | 0.623
6 | CAL-12T | 0.698 | 0.707 | 0.709 | 0.406 | 0.343 | 0.949 | 1.01 | 0.785 | 0.508 | 0.335 | 1.1 | 1.21 | 0.886 | 0.517 | 0.201 | 1.38 | 1.17 | 0.946 | 0.798 | 0.329
7 | COR-L23 | 0.349 | 0.398 | 0.275 | 0.365 | 0.311 | 1.06 | 1.18 | 0.888 | 0.964 | 0.799 | 0.971 | 0.83 | 0.732 | 0.698 | 0.322 | 0.206 | 0.199 | 0.211 | 0.187 | 0.191
8 | COR-L 105 | 0.641 | – | 0.506 | 0.414 | 0.419 | 0.856 | 0.883 | 0.429 | 0.347 | 0.346 | 1.04 | 0.936 | 0.704 | 0.263 | 0.255 | 1.11 | 1.13 | 0.857 | 0.484 | 0.37
9 | Calu-6 | 0.507 | 0.643 | 0.568 | 0.518 | 0.369 | 1.1 | – | 0.993 | 1 | 0.692 | 0.992 | 1.05 | 1.01 | 0.835 | 0.451 | – | – | – | – | –
10 | ChaGo-K-1 | 0.412 | 0.469 | 0.331 | 0.392 | 0.401 | 1.06 | 1.04 | 0.873 | 0.745 | 0.912 | – | – | – | – | – | 0.247 | 0.274 | 0.248 | 0.429 | 0.233
11 | EBC-1 | 0.774 | 0.668 | 0.669 | 0.695 | 0.544 | 0.599 | 0.569 | 0.541 | 0.533 | 0.349 | 0.912 | 0.958 | 0.795 | 0.754 | 0.517 | – | – | – | – | –
12 | EKVX | 0.86 | – | 0.624 | 0.341 | 0.203 | 1.02 | 1.18 | 0.894 | 0.271 | 0.184 | 0.878 | 0.973 | 0.645 | 0.284 | 0.161 | 0.413 | 0.421 | 0.288 | 0.232 | 0.167
13 | EMC-BAC-2 | 0.521 | 0.481 | 0.501 | 0.528 | 0.45 | 1.25 | 1.13 | 0.979 | 0.99 | 0.889 | 0.774 | – | 0.667 | 0.576 | 0.301 | 0.473 | 0.495 | 0.435 | 0.451 | 0.475
14 | EPLC-272H | 0.645 | 0.643 | 0.558 | 0.512 | 0.253 | 0.841 | 0.994 | 0.881 | 0.775 | 0.65 | 0.962 | 0.87 | 0.699 | 0.71 | 0.352 | 0.27 | 0.356 | 0.262 | 0.281 | 0.233
15 | H3255 | 0.58 | 0.571 | 0.463 | 0.264 | 0.214 | 0.776 | 0.97 | 0.556 | 0.225 | 0.233 | 0.706 | – | 0.468 | 0.171 | 0.107 | 0.556 | 0.568 | 0.469 | 0.332 | 0.226
16 | HARA | 0.811 | – | 0.778 | – | 0.48 | 1.26 | 1.15 | 0.97 | 0.974 | 0.79 | – | 0.813 | 0.545 | 0.385 | 0.264 | 0.317 | 0.276 | 0.196 | – | 0.238
17 | HCC-15 | 0.697 | 0.819 | 0.673 | 0.667 | 0.659 | 0.948 | 1.16 | 0.932 | 0.956 | 0.882 | 0.931 | 0.92 | 0.864 | 0.859 | 0.584 | 0.205 | 0.222 | 0.233 | 0.227 | 0.205
18 | HCC-44 | 1.04 | 1.03 | 0.899 | 0.94 | 0.979 | 0.997 | 0.954 | 0.78 | 0.931 | 0.952 | 0.97 | 0.95 | 0.702 | 0.838 | 0.754 | 0.63 | 0.686 | 0.635 | 0.648 | 0.671
